# Measurements published in patent US9199976B2, “Haematopoietic-prostaglandin D2 synthase inhibitors” (The University of Queensland, priority 2010, dated 2015).
# Experiments:
# [1] = tested on: MEG-01S cells; assay: MEG-01S cell viability by MTT assay; type: cell-based, human; conditions: 24 h, 0-100 μM
# Protocol: (§1) All bone marrow-derived macrophages (BMM) were obtained by culturing bone marrow cells from the femurs of 6 to 8 week old C57BL/6 male mice in RPMI 1640 medium (Invitrogen Life Technologies, Carlsbad, Calif., USA) supplemented with 10% Fetal calf serum (Invitrogen) 20 U/ml penicillin and 20 μg/ml streptomycin (Invitrogen), 2 mM L-glutamine (Glutamax-1, Invitrogen) in the presence of 10^4 U/ml (100 ng/mL) recombinant human CSF-1 (a gift from Chiron, Emeryville, Calif.) on bacteriological plastic plates for 7 days. The human megakaryocytic cell line MEG-01S was obtained from the American Type Culture Collection. MEG-01S were maintained in the same media as for BMM, supplemented with 1 mM Sodium Pyruvate (Invitrogen).
# (§2) Known inhibitors 1 and 2, along with compound 3, were used to treat BMM at three doses (10, 30, 100 μM) in the presence of LPS for 24 h and cell viability was measured by MTT assay. BMM were seeded at 1×10^5 cells/well in 96 well plates and treated for 24 h with LPS (10 ng/ml) and compounds at 10, 30 and 100 μM. MEG-01S were PMA differentiated overnight before compounds were added for a further 24 h at 10, 30 and 100 μM. Cell viability was measured by MTT (Sigma-Aldrich) assay as described previously (Irvine, FASEB J, 2006).
# The effect of the compounds on MEG-01S cell viability was measured by MTT assay after 24 h treatment across the concentration range 0-100 μM of compounds (FIG. 3B). Data represent the average of 4 independent experiments plus SEM.
# [2] = tested on: BMM; assay: BMM cell viability by MTT assay; type: cell-based, mouse; conditions: LPS 10 ng/ml, 24 h, 10-100 μM
# Protocol: as §1, §2
# [3] = tested on: LPS-inducible TXB2 (thromboxane A2 derivative) production from BMM; assay: TXB2 production in LPS-activated BMM (EIA); type: cell-based; conditions: LPS-activated mouse BMM, 24 h
# Protocol: as §1
# (§3) BMM were seeded overnight at 2×10^5 cells/ml in 24 well plates before treatment with compound at either 10 μM or 0.1-100 μM for 24 h in the presence or absence of lipopolysaccharide (LPS) from Salmonella Minnesota (Sigma-Aldrich) at a final concentration of 10 ng/ml. […] Supernatants were collected and samples were analysed for PGD2 using Prostaglandin D2 Mox Express EIA kits, PGE2 using Prostaglandin E2 Express EIA kits, the prostacyclin derivative 6-keto PGF1α using the 6-keto Prostaglandin F1α EIA Kit and the Thromboxane A2 derivative TXB2 using the Thromboxane B2 Express EIA kit (Cayman Chemical) according to the manufacturer's instructions. […]
# [4] = Rat pharmacokinetics, plasma concentration after oral dosing; type: in vivo, Sprague Dawley rat; conditions: single oral 40 mg/kg; for Concentration (individual rat): rat plasma
# Protocol: Male adult Sprague Dawley rates (˜165 g) received a single oral bolus dose of 40 mg/kg of compound 3 in a 0.5% methylcellulose/0.1% Tween80 by oral gavage. Rats were sacrificed when collecting blood and spleen samples just prior to dosing and at 0.5 hours, 2 h, 8 h and 24 h (n=3 rats per time point), and the plasma concentration of compound 3 and the spleen PGD2 concentration was measured at each time point.
# Blood samples were removed and kept cold at approximately 4° C. immediately after collection to minimize degradation and centrifuged as soon as possible at approximately 4000×g for 10 min. The plasma was transferred to a clean, pre-labelled polypropylene tube and frozen. Samples were stored at −20° C. as soon as possible after collection to minimise degradation of the test item.
# Plasma concentrations of 3 were determined using a screening LC-ms/ms method developed using the following parameters:
# Samples were analysed alongside plasma standards. Concentration data were determined by back calculation from standard curve.
# [5] = tested on: PGD2 production in mouse primary bone marrow-derived macrophages (BMM); assay: PGD2 production in LPS-activated BMM (EIA); type: cell-based
# Protocol: as §1, with “(Invitrogen). […] The average PGD2 production from three independent experiments plus SEM is shown. * indicates p<0.05 versus LPS treatment alone. (Student's t test).” for “(Invitrogen).”
# [6] = tested on: LPS-inducible PGE2 production from BMM; assay: PGE2 production in LPS-activated BMM (EIA); type: cell-based; conditions: LPS-activated mouse BMM, 24 h
# Protocol: as §1, §3
# [7] = tested on: PGD2 production from MEG-01S human megakaryocytes; assay: A23187-inducible PGD2 production in PMA-differentiated MEG-01S (EIA); type: cell-based; conditions: 0-100 μM
# Protocol: as §1, §3
# [8] = tested on: LPS-inducible 6-keto PGF1α (prostacyclin derivative) production from BMM; assay: 6-keto PGF1α production in LPS-activated BMM (EIA); type: cell-based; conditions: LPS-activated mouse BMM, 24 h
# Protocol: as §1, §3
# [9] = target: H-PGDS (Homo sapiens (Human), UniProt O60760); assay: H-PGDS catalyzed conjugation of GSH and CDNB, enzyme inhibition assay; type: biochemical; conditions: 50 μM compound; mean ± standard error of triplicate experiments; read-out: I[50], percent inhibition at 50 μM
# Protocol: H-PGDS was expressed and purified as described previously (Jowsey, 2001). Briefly, H-PGDS was expressed in Escherichia coli strain BL21 DE3 transformed with the pET17b HPGDS expression construct, grown overnight at 37° C. in 250 ml of Luria-Bertani medium supplemented with 100 μg/ml ampicillin. After 24 h, without induction, bacteria were harvested by centrifugation at 5000 g for 20 min at 4° C.; cell pellets were kept at −70° C. until required. Cells were resuspended in 25 ml of ice-cold phosphate buffered saline (PBS), pH 7.4, containing 1 mM DTT, 0.5% Triton X-100 and EDTA-free protease inhibitor tablets (F. Hoffmann-La Roche, Dee Why, NSW, Australia); and incubated with rotation for 30 mins at 4° C. Cells were then lysed by sonication at 90-100 W over 3×1 min intervals, while incubated on ice; the lysate clarified by centrifugation at 18000 g for 10 min at 4° C.
# The supernatant was then applied to a GSTPrep FF 16/10 column pre-equilibrated with PBS, pH 7.4, and 1 mM DTT, at 0.4 ml/minute using an AKTA explorer 100 (GE Healthcare, Rydalmere, NSW, Australia), then washed with 5 column volumes of the same buffer at 1 ml/min. Bound H-PGDS was eluted in 5 column volumes of 15 mM reduced glutathione in 50 mM Tris, pH 9.0, at 0.5 ml/min, and dialysed against 100 volumes of 5 mM TrisCl, pH 8.0. The protein was concentrated to 20 mg/ml, as determined by the method of Bradford (Bradford, 1976) using an Amicon Ultra-4 centrifugal filter device (Millipore, North Ryde, NSW, Australia) following manufacturers recommendations. Glycerol was added to a final concentration of 10% (v/v) prior to storage at −20° C.
# The H-PGDS catalyzed conjugation of GSH and 1-chloro-2,4-dinitrobenzene (CDNB) was used as the biochemical assay for enzyme inhibition. Reactions were performed in 96 well plate format, and product formation was followed at A340 nm over a 10 min interval at 25° C. using a POWERWAVE XS microplate scanning spectrophotometer (Bio-Tek Instruments, Winooski, Vt., USA). Reactions were performed in 0.1 M Tris HCl, pH 8.0 containing 2 mM MgCl2, 1 mM CDNB, 2 mM GSH, 2.5 ng/μ1 purified H-PGDS and 10% (v/v) ethanol in a 200 μl reaction volume. IC50 values were calculated from rates of conjugation activity determined at eight concentration points bracketing the IC50, where compound solubility allowed, and were corrected for background activity at the same solvent concentrations. All compounds were made up in 100% DMSO and diluted with 0.1 M Tris HCl, pH 8.0 with 2 mM MgCl2. I50 and IC50 values were determined at a final DMSO composition of no greater than 4% v/v for all compounds. Non-linear regression analysis and IC50 calculations were performed using GraphPad Prism version 4.0c.
# Sequence of H-PGDS (O60760 whole entry): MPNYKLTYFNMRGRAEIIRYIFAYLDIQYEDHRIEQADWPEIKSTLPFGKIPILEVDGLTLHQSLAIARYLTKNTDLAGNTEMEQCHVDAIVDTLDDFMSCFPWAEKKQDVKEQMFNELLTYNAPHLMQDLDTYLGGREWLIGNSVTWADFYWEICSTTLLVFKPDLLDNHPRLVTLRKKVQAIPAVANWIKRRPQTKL
smiles,measurement,setting,value
"NC(=O)[C@H](Cc1ccccc1)NC(=O)c1ccc(-c2cccs2)nc1 (stereo in doubt) [Compound 3, N-(1-amino-1-oxo-3-phenylpropan-2-yl)-6-(thiophen-2-yl)-nicotinamide]",effect on MEG-01S cell viability,[1],little effect
same,effect on BMM cell viability,[2],did not affect BMM viability
same,concentration above which TXB2 inhibition was observed,[3],above 10 μM
same,Concentration (individual rat),[4]; 0.5 h,177 ng/mL
same,Concentration (individual rat),"[4]; 24 h, BLOQ = below the lower limit of quantitation",BLOQ^2
same,oral bioavailability,[4]; rat,orally bioavailable
same,"differential effect in inhibition of PGD2 versus PGE2, 6-keto PGF1α or TXB2 (selectivity)",[5]; LPS-activated mouse BMM,striking selectivity
same,inhibition of PGD2 production,"[5]; LPS-activated mouse BMM, 0-100 μM, 24 h",inhibited PGD2 production in the sub-micromolar range dose-dependently
same,inhibition of PGD2 levels at 1 μM,"[5]; LPS-activated mouse BMM, 1 μM",significantly inhibiting
same,EC50 fold better than that estimated for compound 1,"[5]; LPS-activated mouse BMM, PGD2 production",~30 fold
same,concentration above which PGE2 inhibition was observed,[6],above 10 μM
same,inhibition of A23187-inducible PGD2 production,[7],dose-dependently
same,concentration above which 6-keto PGF1α inhibition was observed,[8],above 10 μM
c1ccc(C(OC2CCN(CCCc3nnn[nH]3)CC2)c2ccccc2)cc1 [Compound 1],effect on MEG-01S cell viability,[1],little effect
same,effect on BMM cell viability,[2],modest but significant effects
c1ccc(-c2ncc(-c3cc[nH]n3)s2)cc1 [Compound 2],effect on MEG-01S cell viability,[1],little effect
same,effect on BMM cell viability,[2],modest but significant effects
same,EC50,"[5]; Mus musculus, Macrophage, 24 h, read-out: EC50 for inhibition of PGD2 production",~160 nM
"O=C(c1ccc(-c2cccs2)nc1)N1CCC(N2C(=O)OCc3ccccc32)CC1 [Compound 13, 1-(1-(6-(thiophen-2-yl)nicotinoyl)piperidin-4-yl)-1H-benzo[d][1,3]oxazin-2(4H)-one]",inhibition at 50 µM,[9],87.9 ± 1.1%
NC(=O)[C@H](Cc1ccccc1)NC(=O)c1ccc(-c2ccc(C(=O)O)s2)nc1 [Compound 15],inhibition at 50 µM,[9],19.4 ± 1.4%
N#Cc1ccc(-c2ccc(C(=O)N[C@@H](Cc3ccccc3)C(N)=O)cn2)s1 [Compound 20],inhibition at 50 µM,[9],67.9 ± 1.6%
Cc1cc(-c2ccc(C(=O)N[C@@H](Cc3ccccc3)C(N)=O)cn2)sc1C#N [Compound 22],inhibition at 50 µM,[9],34.6 ± 2.1%
